Measurements reported in US20120238488A1, “COMPOUNDS AND METHODS FOR TREATING NEOPLASIA” (priority 2009, published 2012).

What was measured:
[1] = test system: membrane androgen receptor; assay: Membrane androgen receptor competition assay, DU145 cells; assay type: binding; details: 40 μM compound 30 minutes before 40 μM testosterone-HSA-FITC, FIGS. 3B, 3C
Source text: To assess whether compounds of the invention were capable of binding directly to the membrane androgen receptor, a fluorescent-based assay was used to measure the ability of a given compound to preclude binding of a fluorescent mAR ligand (testosterone-HSA-FITC conjugates) to its receptor in LNCaP and DU145 cells (see Kampa, M et al, 2002, Faseb J 16:1429-1431, and PCT/U52007/007913).
The detection of membrane androgen receptors using fluorescent testosterone-serum albumin conjugates was performed as described by Kampa, M et al, 2002, Faseb J 16:1429-1431, with minor modifications. Briefly, LNCaP or DU145 prostate cancer cells were cultured on 0.1% gelatin-coated glass coverslips in RPMI 1640 medium supplemented with 2 mM L-Glutamine, 10% Fetal Bovine Serum and 1% Penicillin/Streptomycin for at least 48 hours until reaching 70% confluency. After a 24 hour serum starvation period, cells were incubated with 40 μM testosterone-HSA-FITC for 1 hour at room temperature. The cells were then washed three times with phosphate buffered saline (PBS) and fixed with 3.7% formaldehyde in PBS for 5 minutes at room temperature. Human serum albumin-FITC was used as a control for background staining. […] Coverslips were mounted on slides by using the Slow Fade/Antifade Reagent (Molecular Probes) and studied under a LEICA DMLB microscope, equipped with the appropriate fluorescence filters and a Leica DC 300F camera. Specimens were analyzed using the Leica FW4000 computer program.
To determine the capacity of a given compound to preclude binding of fluorescent testosterone-HSA conjugates (TAC) to the membrane androgen receptor, starved LNCaP or DU145 cells on coverslips prepared as described above were pre-treated with 40 μM of the indicated compound for 30 minutes prior to the addition of testosterone-HSA-FITC. […] Specimens were prepared and analyzed as described above. Compounds binding to the membrane androgen receptor preclude binding of fluorescent testosterone-HSA conjugates to their target and abolish membrane-specific fluorescence.

SF268 (CNS) = assay: SRB assay, SF268; assay type: cell-based; details: Homo sapiens
Procedure: (§1) SRB assays were performed according to standard National Cancer Institute Guidelines. Briefly, human tumor cells from different cancer panels were seeded into 96 well plates in 100 μL (plating densities ranging from 5-40,000 cells/well depending on the doubling time of individual cell lines) in serum-containing media for twenty-four hours prior to the addition of the compounds to be assayed. After 24 hours, one plate of each cell line was fixed in situ with trichloroacetic acid (TCA). The fixed slides were used to determine the cell population for each cell line at the time of drug addition (Tz). Each compound to be tested was solubilized in DMSO and the desired concentration was then added to the medium and diluted serially 1:10 to provide a total of five or ten drug concentrations plus control (in a final volume of 200 μL). The starting dose before any dilution was 100 uM for all compounds.
(§2) Following drug addition, each culture was incubated for forty-eight hours. The assay was terminated with the addition of cold TCA. The supernatant was discarded, and the plates were washed with tap water and air dried. Sulforhodamine B (SRB) solution was then added to each well. After staining, the bound stain was solubilized and the absorbance was read on an automated plate reader at a wavelength of 515 nm.
(§3) Using the absorbance measurements [time zero, (Tz), control growth, (C), and test growth in the presence of drug at the ten concentration levels (Ti)], the percentage growth was calculated at each of the drug concentrations levels. Percentage growth inhibition was calculated as:
(§4) [(Ti−Tz)/(C−Tz)]×100 for concentrations for which Ti>/=Tz
(§5) [(Ti−Tz)/Tz]×100 for concentrations for which Ti<Tz.
(§6) Three dose response parameters were calculated for each experimental agent. Growth inhibition of 50% (GI50) was calculated from [(Ti−Tz)/(C−Tz)]×100=50, which was the drug concentration resulting in a 50% reduction in the net protein increase (as measured by SRB staining) in control cells during the drug. The drug concentration resulting in total growth inhibition (TGI) was calculated from Ti=Tz. The LC50 (concentration of drug resulting in a 50% reduction in the measured protein at the end of the drug treatment as compared to that at the beginning) indicating a net loss of cells following treatment was calculated from [(Ti−Tz)/Tz]×100=−50.
(§7) Values were calculated for each of these three parameters when the level of activity was reached; however, if the effect was not reached or was exceeded, the value for that parameter was expressed as greater or less than the maximum or minimum concentration tested.
(§8) Table 4 summarizes results characterizing the effects of compound Nos. 120, 12, 61, 1, and 56 on GI50, which measures the cell growth inhibitory power of the compound, TGI, which measures cytostatic effect (TGI) and LC50, which signifies cytotoxic effect. Each of these parameters in Table 4 was calculated in a sulforhodamine B (SRB) assay, which provides a colorimetric measure of a compound's anti-cancer activity. SRB assays were performed with compounds of the invention in 22 different cell lines (shaded in light gray in Table 4), which represent nine different tumor panels (lung, melanoma, ovary, prostate, CNS, breast, pancreas colon and renal). Ouabain and digoxin were used as controls. Paclitaxel was added as a non-Na^+K^+-ATPase inhibitor control.

PCJ (Prostate) = assay: SRB assay, PCJ; assay type: cell-based; details: Homo sapiens, 48 h
Procedure: as §1, §2, §3, §4, §5, §6, §7, §8

MCF7 (Breast) = assay: SRB assay, MCF7; assay type: cell-based, human
Procedure: as §1, §2, §3, §4, §5, §6, §7, §8

H160 (Lung) = assay: SRB assay, H160; assay type: cell-based, human; details: 48 h
Procedure: as §1, §2, §3, §4, §5, §6, §7, §8

HCT116 (Colon) = assay: SRB assay, HCT116; assay type: cell-based; details: Homo sapiens
Procedure: as §1, §2, §3, §4, §5, §6, §7, §8

[2] = test system: 22 different cell lines, nine tumor panels (lung, melanoma, ovary, prostate, CNS, breast, pancreas colon and renal); assay: SRB assay, all tumor cell line panels (summary statements); assay type: cell-based, human; details: lung, breast, CNS, colon, prostate, ovary, pancreas, kidney and melanoma lines, including a multidrug resistant cell line
Procedure: as §1, §2, §3
Three dose response parameters were calculated for each experimental agent. […] The drug concentration resulting in total growth inhibition (TGI) was calculated from Ti=Tz. The LC50 (concentration of drug resulting in a 50% reduction in the measured protein at the end of the drug treatment as compared to that at the beginning) indicating a net loss of cells following treatment was calculated from [(Ti−Tz)/Tz]×100=−50.
Each of these parameters in Table 4 was calculated in a sulforhodamine B (SRB) assay, which provides a colorimetric measure of a compound's anti-cancer activity. SRB assays were performed with compounds of the invention in 22 different cell lines (shaded in light gray in Table 4), which represent nine different tumor panels (lung, melanoma, ovary, prostate, CNS, breast, pancreas colon and renal). […] Paclitaxel was added as a non-Na^+K^+-ATPase inhibitor control.

C[C@]12CC[C@H](O)C[C@H]1CC[C@@H]1[C@@H]2CC[C@]2(C)[C@@](O)(c3ccoc3)CC[C@]12O [rostafuroxin, reference compound]
membrane fluorescence of TAC-FITC after pre-treatment (binding to mAR precluded) [1]: failed to block binding of TAC-FITC to mAR

C[C@@H]1O[C@@H](O[C@H]2C[C@@H](O)[C@]3(CO)[C@H]4[C@H](O)C[C@]5(C)[C@@H](C6=CC(=O)OC6)CC[C@]5(O)[C@@H]4CC[C@]3(O)C2)[C@H](O)[C@H](O)[C@H]1O [Ouabain, reference compound]
CC50 (SF268 (CNS); SF-268, 48 h, read-out: LC50): 300 nM | GI50 (SF268 (CNS); SF-268, SF268, SRB, 48 h, read-out: GI50): < 80 nM | IC (TGI) (SF268 (CNS); SF-268, SF268, SRB, 48 h, read-out: TGI): 100 nM | CC50 (PCJ (Prostate); read-out: LC50): 300 nM | GI50 (PCJ (Prostate); PCJ, SRB): < 80 nM | IC (TGI) (PCJ (Prostate); PCJ, SRB): 100 nM | CC50 (MCF7 (Breast); Homo sapiens, MCF7, 48 h, read-out: LC50): 300 nM | GI50 (MCF7 (Breast); Homo sapiens, MCF7, SRB, 48 h): < 80 nM | TGI (MCF7 (Breast); MCF7, SRB, 48 h): 200 nM | TGI (H160 (Lung); H160, SRB): 100 nM | CC50 (H160 (Lung); Homo sapiens, read-out: LC50): 300 nM | GI50 (H160 (Lung); Homo sapiens, H160, SRB): < 80 nM | CC50 (HCT116 (Colon); HCT-116, 48 h, read-out: LC50): > 50000 nM | GI50 (HCT116 (Colon); HCT-116, HCT116, SRB, 48 h): < 80 nM | IC (TGI) (HCT116 (Colon); HCT-116, HCT116, SRB, 48 h): 4500 nM

C[C@]12CCC(=NOCCn3cc(CN)nn3)CC1CCC1C2CC[C@]2(C)C(=O)CCC12 (stereo partly drawn) [Compound 31, (10S,13S)-3-(2-(4-(aminomethyl)-1H-1,2,3-triazol-1-yl)ethoxyimino)-10,13-dimethyltetradecahydro-1H-cyclopenta[a]phenanthren-17(2H)-one]
viability and/or cell proliferation of neoplastic cell lines [2]: reduced the viability and/or cell proliferation
